Data reported in patent US8802353B2, “Compound for resist and radiation-sensitive composition specification” (Mitsubishi Gas Chemical Company, Inc., priority 2004, dated 2014).

Tests used:
Type in all cases: physicochemical
[1] = Glass transition temperature, crystallization temperature and quantity of crystallization heat (DSC); conditions: for Glass transition temperature Rating / Glass transition temperature / Crystallization temperature: DSC; for Glass transition temperature: 20° C./min, nitrogen gas flow; for Glass transition temperature-Crystallization temperature: rating of the difference; for Crystallization temperature: exothermic peak
Procedure: A sample (about 10 mg) placed in a non-sealed aluminum container was heated to a temperature higher than the melting point at a temperature rising rate of 20° C./min in a nitrogen gas flow (50 ml/min). After being rapidly cooled, the sample was again heated to a temperature higher than the melting point at a temperature rising rate of 20° C./min in a nitrogen gas flow (30 ml/min). After being rapidly cooled, the sample was again heated to 400° C. at a temperature rising rate of 20° C./min in a nitrogen gas flow (30 ml/min), to conduct a differential scanning calorimetric analysis using DSC/TA-50WS manufactured by Shimadzu Corporation. The middle point of the region at which the base line turned discontinuous (the point at which the specific heat reduced to half) was taken as the glass transition temperature (Tg) and the temperature of the exothermic peak after the discontinuous region was taken as the crystallization temperature. The quantity of crystallization heat was determined by the area of the region which was surrounded by the exothermic peak and the base line. The sample was rated A when meeting Tg≧130° C., and rated C when meeting Tg≦130° C. Also, the sample was rated A when meeting (glass transition temperature)−(crystallization temperature)≧70° C., and rated C when meeting (glass transition temperature)-(crystallization temperature)<70° C.

[2] = Solubility in safety solvent; conditions: 23° C.; PGMEA, PGME, ethyl lactate, butyl acetate, methyl 3-methoxypropionate, ethyl propionate
Procedure: The solubility of the compound B was tested at 23° C. using propylene glycol monomethyl ether acetate, propylene glycol monomethyl ether, ethyl lactate, butyl acetate, methyl 3-methoxypropionate and ethyl propionate. The sample was rated A when dissolved in any one of the above solvents in a concentration of 5 wt % or more, rated B when dissolved in a concentration of 0.1 to 5 wt %, and rated C when dissolved only in a concentration of less than 0.1 wt %.

[3] = Film-forming property (spin-coated film on silicon wafer); set-up: key: rated C when the film was clouded or its surface was roughened; rated B when the film was partly clouded or roughened; rated A when the film had a good surface flatness without causing clouding; conditions: 3% by weight solution spin-coated, 110° C. 3 min
Excerpt: A 3% by weight solution of the compound B or a mixture (compound B and polyphenol A) in PGME/PE (1/2 by weight) or acetone when not dissolved in PGME/PE was spin-coated on a silicon wafer which had been surface-treated with a silane coupling agent, to form a resist film with a thickness of about 0.05 μm.

[4] = Adhesion to silicon substrate; set-up: key: rated A when the film was not peeled from the silicon wafer; rated C when peeled off; conditions: silicon wafer surface-treated with silane coupling agent
Procedure: The resist film formed in (2-2) was tested for its adhesion to the silicon wafer which was surface-treated with a silane coupling agent. The sample was rated A when the film was not peeled from the silicon wafer, and rated C when peeled off.

| SMILES | Glass transition temperature Rating [1] | Glass transition temperature [1] [°C] | Glass transition temperature-Crystallization temperature [1] | Crystallization temperature [1] [°C] | Solubility to safety solvent [2] | film-forming property [3] | Adhesion to silicon substrate [4] |
| --- | --- | --- | --- | --- | --- | --- | --- |
| Cc1cc(C(c2ccc3cc(C(c4cc(C)c(O)cc4C)c4cc(C)c(O)cc4C)ccc3c2)c2cc(C)c(O)cc2C)c(C)cc1O [Compound 101, tetrakis(2,5-xylenol)-2,6-naphthalenedialdehyde] | A (rated A when meeting Tg≧130° C.) | 144 | A (rated A when meeting (glass transition temperature)−(crystallization temperature)≧70° C.) | – | – | – | – |
| Cc1cc(C(c2ccc3cc(C(c4cc(C)c(O)c(C)c4C)c4cc(C)c(O)c(C)c4C)ccc3c2)c2cc(C)c(O)c(C)c2C)c(C)c(C)c1O [Compound 102] | A (rated A when meeting Tg≧130° C.) | 136 | A (rated A when meeting (glass transition temperature)−(crystallization temperature)≧70° C.) | – | – | – | – |
| Cc1cc(C(c2ccc3ccc(C(c4cc(C)c(O)cc4C)c4cc(C)c(O)cc4C)cc3c2)c2cc(C)c(O)cc2C)c(C)cc1O [Compound 104] | A (rated A when meeting Tg≧130° C.) | 145 | A (rated A when meeting (glass transition temperature)−(crystallization temperature)≧70° C.) | 287 | – | – | – |
| Cc1cc(C(c2ccc(-c3cccc(-c4ccc(C(c5cc(C)c(O)cc5C)c5cc(C)c(O)cc5C)cc4)c3)cc2)c2cc(C)c(O)cc2C)c(C)cc1O [Compound 106] | A (rated A when meeting Tg≧130° C.) | 137 | A (rated A when meeting (glass transition temperature)−(crystallization temperature)≧70° C.) | – | – | – | – |
| Cc1cc(C(c2ccc(-c3ccc(-c4ccc(C(c5cc(C)c(O)cc5C)c5cc(C)c(O)cc5C)cc4)cc3)cc2)c2cc(C)c(O)cc2C)c(C)cc1O [Compound 107] | A (rated A when meeting Tg≧130° C.) | 147 | A (rated A when meeting (glass transition temperature)−(crystallization temperature)≧70° C.) | – | – | – | – |
| CCOC(C)Oc1cc(C)c(C(c2ccc3cc(C(c4cc(C)c(O)cc4C)c4cc(C)c(O)cc4C)ccc3c2)c2cc(C)c(O)cc2C)cc1C (stereo not shown) [Compound 109] | – | – | – | – | A (rated A when dissolved in any one of the above solvents in a concentration of 5 wt % or more) | A | A |
| Cc1cc(C(c2ccc3cc(C(c4cc(C)c(O)cc4C)c4cc(C)c(OC(C)OC5CCCCC5)cc4C)ccc3c2)c2cc(C)c(O)cc2C)c(C)cc1O (stereo not shown) [Compound 110] | – | – | – | – | A (rated A when dissolved in any one of the above solvents in a concentration of 5 wt % or more) | A | A |
| CCOC(C)Oc1c(C)cc(C(c2ccc3cc(C(c4cc(C)c(O)c(C)c4C)c4cc(C)c(O)c(C)c4C)ccc3c2)c2cc(C)c(O)c(C)c2C)c(C)c1C (stereo not shown) [Compound 111] | – | – | – | – | A (rated A when dissolved in any one of the above solvents in a concentration of 5 wt % or more) | A | A |
| Cc1cc(C(c2ccc3cc(C(c4cc(C)c(O)c(C)c4C)c4cc(C)c(OC(C)OC5CCCCC5)c(C)c4C)ccc3c2)c2cc(C)c(O)c(C)c2C)c(C)c(C)c1O (stereo not shown) [Compound 112] | – | – | – | – | A (rated A when dissolved in any one of the above solvents in a concentration of 5 wt % or more) | A | A |
| Cc1cc(O)c(C(C)C)cc1C(c1ccc2cc(C(c3cc(C(C)C)c(O)cc3C)c3cc(C(C)C)c(OC(C)OC4CCCCC4)cc3C)ccc2c1)c1cc(C(C)C)c(O)cc1C (stereo not shown) [Compound 113] | – | – | – | – | A (rated A when dissolved in any one of the above solvents in a concentration of 5 wt % or more) | A | A |
| Cc1cc(C(c2ccc3ccc(C(c4cc(C)c(O)c(C)c4C)c4cc(C)c(OC(C)OC5CCCCC5)c(C)c4C)cc3c2)c2cc(C)c(O)c(C)c2C)c(C)c(C)c1O (stereo not shown) [Compound 114] | – | – | – | – | A (rated A when dissolved in any one of the above solvents in a concentration of 5 wt % or more) | A | A |
| Cc1cc(C(c2ccc(-c3cccc(-c4ccc(C(c5cc(C)c(O)cc5C)c5cc(C)c(OC(C)OC6CCCCC6)cc5C)cc4)c3)cc2)c2cc(C)c(O)cc2C)c(C)cc1O (stereo not shown) [Compound 115] | – | – | – | – | A (rated A when dissolved in any one of the above solvents in a concentration of 5 wt % or more) | A | A |
| Cc1cc(C(c2ccc(-c3ccc(-c4ccc(C(c5cc(C)c(O)cc5C)c5cc(C)c(OC(C)OC6CCCCC6)cc5C)cc4)cc3)cc2)c2cc(C)c(O)cc2C)c(C)cc1O (stereo not shown) [Compound 116] | – | – | – | – | A (rated A when dissolved in any one of the above solvents in a concentration of 5 wt % or more) | A | A |
| Cc1cc(C(c2cc(C(c3cc(C)c(OC(=O)OC(C)(C)C)c(C)c3C)c3cc(C)c(OC(=O)OC(C)(C)C)c(C)c3C)cc(C(c3cc(C)c(OC(=O)OC(C)(C)C)c(C)c3C)c3cc(C)c(OC(=O)OC(C)(C)C)c(C)c3C)c2)c2cc(C)c(OC(=O)OC(C)(C)C)c(C)c2C)c(C)c(C)c1OC(=O)OC(C)(C)C [Compound 117] | – | – | – | – | A (rated A when dissolved in any one of the above solvents in a concentration of 5 wt % or more) | A | A |
| Cc1cc(C(c2ccc3cc(C(c4cc(C)c(O)cc4C)c4cc(C)c(OC(C)OC5CCCCC5)cc4C)ccc3c2)c2cc(C)c(O)cc2C)c(C)cc1O (stereo not shown) [Compound 118] | – | – | – | – | A (rated A when dissolved in any one of the above solvents in a concentration of 5 wt % or more) | A | A |
| Cc1cc(C(c2cc(C(c3cc(C)c(O)c(C)c3C)c3cc(C)c(O)c(C)c3C)cc(C(c3cc(C)c(O)c(C)c3C)c3cc(C)c(OC(C)OC4CCCCC4)c(C)c3C)c2)c2cc(C)c(O)c(C)c2C)c(C)c(C)c1O (stereo not shown) [Compound 119] | – | – | – | – | A (rated A when dissolved in any one of the above solvents in a concentration of 5 wt % or more) | A | A |
| CC(C)(C)OC(=O)Oc1ccc(C(C)(C)c2ccc(OC(=O)OC(C)(C)C)cc2)cc1 [Compound 201, reference compound] | – | – | – | – | C (rated C when dissolved only in a concentration of less than 0.1 wt %) | – | – |
| CC(C)(C)OC(=O)Oc1ccc(C2(c3ccc(OC(=O)OC(C)(C)C)cc3)CCCCC2)cc1 [Compound 202, reference compound] | – | – | – | – | C (rated C when dissolved only in a concentration of less than 0.1 wt %) | – | – |
| Cc1cc(C(C)(c2ccc(O)c(C)c2)c2ccc3ccccc3c2)ccc1O [Compound 206, 1-(2-naphthyl)-1,1-bis(3-methyl-4-hydroxyphenyl)ethane, reference compound] | C (rated C when meeting Tg≦130° C.) | 72 | A (rated A when meeting (glass transition temperature)−(crystallization temperature)≧70° C.) | – | – | – | – |
| Oc1ccc(C2(c3ccc(O)cc3)c3ccccc3-c3ccccc32)cc1 [Compound 209, bisphenol fluorene, reference compound] | C (rated C when meeting Tg≦130° C.) | 101 | C (rated C when meeting (glass transition temperature)-(crystallization temperature)<70° C.) | 157.7 | – | – | – |
